PubChem BioAssay AID1159568 (Broad Institute, 2015)
Records with an inconclusive call do not appear. Calls of active or inactive are those of the source.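 The calls were made as follows: active = signal loss with an EC50 at or below twice the highest valid dose for that sample; inconclusive = flat curve with 30 to 70% inhibition, or poor fit; inactive = the rest.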

Tested on: P. falciparum Dd2 in erythrocytes, SYBR Green growth, 72 h
Assay: P. falciparum Dd2 growth inhibitors, dose response, SYBR Green, dry powder samples, set 9 (AID 1159568)

In the case of `O=C(C[C@H]1C[C@H]2c3cc(NC(=O)c4ccc5c(c4)OCO5)ccc3O[C@H]2[C@H](CO)O1)NCc1ccc(Oc2ccccc2)cc1`, the EC50 is reported as > 39 µM (inactive).
